Data from US9529131B2, “Polarizing plate” (NITTO DENKO CORPORATION, priority 2014, dated 2016).

Assay: log P value (octanol/water partition coefficient)
Details: not given

In the case of `C=CC(=O)OCCCCCCCCCOC(=O)C=C` [LIGHT ACRYLATE 1,9ND-A, 1,9-nonanediol diacrylate], the logP is reported as 3.68.

Same assay, conditions: shake flask method JIS Z 7260 or ChemDraw Ultra calculation, not stated which

Going from `C=CC(=O)OCCCCCCCCCCOC(=O)C=C` [1,10-decanediol diacrylate] to `CSc1ccc(C(=O)C(C)(C)N2CCOCC2)cc1` [IRGACURE 907, 2-methyl-1-(4-methylthiophenyl)-2-morpholinopropan-1-one], the “log P” value falls from 4.10 to 2.09.

`C=CC(=O)OCCN=C=O` [Karenz AOI] and `C=CC(=O)OCC(C)OCC(C)OCC(C)OC(=O)C=C` (stereo not drawn) [TPGDA, tripropylene glycol diacrylate] are within 0.2 log units of each other in “log P” value: 1.6 for the first, 1.68 for the second.

For “bisphenol A-propylene oxide (2 mole) adduct di(meth)acrylate”, the “log P” value was 6.10.
